Counter-ions that a name gives are not always drawn.
tested on: rat pituitary cells; test: growth hormone secretion in rat pituitary cell cultures (GH release, RIA); format: cell-based; details: 0.25 h; GH release from cultured rat anterior pituitary cells, 15 min incubation at 37° C., rat GH measured by double antibody RIA; read-out: ED50 (the source's name)
Experimental: The bioassay employed for the determination of growth hormone secretion in rat pituitary cell cultures has been previously described--Cheng, K.; Chan, W. W.-S; Barreto, A.; Convey, E. M.; Smith, R. G. Endocrinology 124: 2791-2798 (1989)--and is summarized here: The Wistar male rats (150-200 grams) were obtained from Charles River Laboratories (Wilmington, Mass). Rats were maintained at a constant temperature (25° C.) on a 14-hr light, 10-hr dark cycle. Rat chow and water were available ad libitum. The animals were sacrificed by decapitation and anterior lobes of the pituitary quickly removed. Rat pituitary cells were isolated from pituitaries by enzymatic digestion with 0.2% collagenase and 0.2% hyaluronidase in Hank's Balanced Salt Solution. For culture, the cells were suspended in culture medium and adjusted to 1.5×10^5 cells/ml, and 1.0 ml of this suspension was placed in each well of a 24-well tray (Costar, Cambridge, Mass.). Cells were maintained in a humidified 5% CO2 -95% air atmosphere at 37° C. for 3 to 4 days. The culture medium consisted of DMEM containing 0.37% NaHCO3, 10% horse serum, 2.5% fetal bovine serum, 1% non-essential amino acids, 1% glutamine, 1% nystatin, and 0.1% gentamycin. On the day of an experiment, cells were washed twice 11/2 hrs prior to and once more immediately before the start of the experiment with the above culture medium containing 25 mM HEPES, pH 7.4. GH release was initiated by adding 1 ml of fresh medium containing test agents to each well in quadruplicate. Incubation was carded out at 37° C. for 15 min. After incubation, medium was removed and centrifuged at 2,000×g for 15 min to remove any cellular material. The supernatant fluid was removed and assayed for GH content. Rat GH in culture medium was measured by a double antibody RIA procedure using materials obtained from Dr. A. F. Parlow (Harbor-UCLA medical Center, Torrance, Calif.) and expressed in terms of the standard rat GH RP-2. ED50 values for test compounds were computed by fitting a four-parameter logistic function to the dose-response curve. Least squares estimates of the four-parameter logistic function coefficients and their variances were derived using the iterative algorithm described by Bates and Watts.

Q: How did the EC50 turn out when `CNC(=O)Nc1ccccc1-c1ccc(CNC(=O)[C@@H](COCc2ccccc2)NC(=O)C(C)(C)N)cc1` [Example 23, (R)-α-[(2-Amino-2-methyl-1-oxopropyl]amino]-N-[[2'-[[(methylamino)carbonyl]amino][1,1'-biphenyl]-4-yl]methyl]-3-[(phenylmethyl)oxy]propanamide, trifluoroacetate] was run?
A: > 500 nM

Q: For `CNC(=O)Nc1ccccc1-c1ccc(CNC(=O)[C@@H](Cc2c[nH]c3ccccc23)NC(=O)CC(C)(C)N)cc1` [Example 15, (R)-α-[(3-Amino-3-methyl-1-oxobutyl)amino]-N-[[2'-[[(methylamino)carbonyl]amino][1,1'-biphenyl]-4-yl]-methyl]-1H-indole-3-propanamide, trifluoroacetate], which EC50 is on record?
A: > 500 nM

Q: With `CNC(=O)Nc1ccccc1-c1ccc(CNC(=O)[C@@H](Cc2c[nH]c3ccccc23)NC(=O)C(C)(C)N)cc1` [Example 6, (R)-α-[(2-Amino-2-methyl-1-oxopropyl)amino]-N-[[2'-[[(methylamino)carbonyl]amino][1,1'-biphenyl]-4-yl]methyl]-1H-indole-3-propanamide, trifluoroacetate] as the compound, how does the EC50 read?
A: > 500 nM

Q: Which EC50 does the source give for `CC(C)(N)CC(=O)N[C@H](CCc1ccccc1)C(=O)NCc1ccc(-c2ccccc2-c2nnn[nH]2)cc1` [Example 1, (R)-α-[(3-Amino-3-methyl-1-oxobutyl)amino]-N-[[2'-(1H-tetrazol-5-yl)[1,1'-biphenyl]-4-yl]methyl]benzene-butanamide, trifluoroacetate] here?
A: > 500 nM

Q: Which EC50 does the source give for `CN(Cc1ccc(-c2ccccc2-c2nnn[nH]2)cc1)C(=O)[C@@H](Cc1c[nH]c2ccccc12)NC(=O)C(C)(C)N` [Example 13, (R)-α-[(2-Amino-2-methyl-1-oxopropyl)amino]-N-methyl-N-[[2'-(1H-tetrazol-5-yl)[1,1'-biphenyl]-4-yl]methyl]-1H-indole-3-propanamide, trifluoroacetate] here?
A: > 500 nM

Q: With `CC(C)(N)CC(=O)N[C@H](Cc1c[nH]c2ccccc12)C(=O)NCc1ccc(-c2ccccc2NC(=O)NCCO)cc1` [Example 17, (R)-α-[(3-Amino-3-methyl-1-oxobutyl)amino]-N-[[2'-[[(2-hydroxyethylamino)carbonyl]amino][1,1'-biphenyl]-4-yl]-methyl]-1H-indole-3-propanamide, trifluoroacetate] as the compound, how does the EC50 read?
A: > 500 nM

Q: How did the EC50 turn out when `CC(C)(N)C(=O)N[C@H](Cc1c[nH]c2ccccc12)C(=O)NCc1ccc(-c2ccccc2NC(=O)NCCO)cc1` [Example 16, (R)-α-[(2-Amino-2-methyl-1-oxopropyl)amino]-N-[[2'-[[(2-hydroxyethylamino)carbonyl]amino][1,1'-biphenyl]-4-yl]-methyl]-1H-indole-3-propanamide, trifluoroacetate] was run?
A: > 500 nM

Q: With `CC[C@@H](NC(=O)CC(C)(C)N)C(=O)N(Cc1ccc(-c2ccccc2-c2nnn[nH]2)cc1)c1ccccc1` [Example 4, (R)-2-[(3-Amino-3-methyl-1-oxobutyl)amino]-N-phenyl-N-[[2'-(1H-tetrazol-5-yl)[1,1'-biphenyl]-4-yl]methyl]butanamide, trifluoroacetate] as the compound, how does the EC50 read?
A: > 500 nM

Q: `CC(C)(N)CC(=O)N[C@H](Cc1ccccc1)C(=O)NCc1ccc(-c2ccccc2-c2nnn[nH]2)cc1` [Example 2, (R)-α-[(3-Amino-3-methyl-1-oxobutyl)amino]-N-[[2'-(1H-tetrazol-5-yl)[1,1'-biphenyl]-4-yl]methyl]benzene-propanamide, trifluoroacetate] was tested. Which EC50 did it give?
A: < 500 nM

same assay, conditions: GH release from cultured rat anterior pituitary cells, 15 min incubation at 37° C., rat GH measured by double antibody RIA; read-out: ED50 (the source's name)

Q: Which EC50 does the source give for `CCN(Cc1ccc(-c2ccccc2CNC(=O)NC)cc1)C(=O)[C@@H](CCc1ccccc1)NC(=O)C(C)(C)N.O=C(O)C(F)(F)F` [Example 20, (R)-α-[(2-Amino-2-methyl-1-oxypropyl)amino]-N-ethyl-N-[[(2'-[((methylamino)carbonyl)aminomethyl])-[1,1'-biphenyl]-4-yl]methyl]benzenebutanamide,trifluoroacetate] here?
A: < 500 nM

Q: With “(R)-α-[(2-Amino-2-methyl)-1-oxopropyl]amino-N-methyl-N-[(2'-[[(methylamino)carbonyl]amino)methyl][1,1'-biphenyl]-4-yl]benzenebutanamide, trifluoroacetate [Example 35]” as the compound, how does the EC50 read?
A: < 500 nM

Q: `CN(Cc1ccc(-c2ccccc2C#N)cc1)C(=O)[C@@H](CCc1ccccc1)NC(=O)C(C)(C)N.O=C(O)C(F)(F)F` [Example 7b, (R)-α-[(2-amino-2-methyl-1-oxypropyl)amino]-N-[[2'-cyano-[1,1'-biphenyl]-4-yl]methyl]-N-methyl-benzenebutanamide trifluoroacetate] was tested. Which EC50 did it give?
A: > 500 nM

Q: Which EC50 does the source give for `COc1ccc(N(Cc2ccc(-c3ccccc3-c3nnn[nH]3)cc2)C(=O)[C@@H](CCc2ccccc2)NC(=O)C(C)(C)N)cc1.O=C(O)C(F)(F)F` [Example 29, (R)-α-[(2-Amino-2-methyl-1-oxypropyl)amino]-N-(4-methoxyphenyl)-N-[[2'-(1H-tetrazol-5-yl)-[1,1'-biphenyl]-4-yl]methyl]benzenebutanamide, trifluoroacetate] here?
A: > 500 nM

Q: `CNC(=O)Nc1ccccc1-c1ccc(N(C)C(=O)[C@@H](CCc2ccccc2)NC(=O)C(C)(C)N)cc1.O=C(O)C(F)(F)F` [Example 33] was tested. Which EC50 did it give?
A: > 500 nM

Q: With `CC(C)(N)C(=O)N[C@H](COCc1ccccc1)C(=O)NCc1ccc(-c2ccccc2-c2nnn[nH]2)cc1.O=C(O)C(F)(F)F` [Example 27, (R)-α-[(2-Amino-2-methyl-1-oxypropyl)amino]-N-[[2'-(1H-tetrazol-5-yl)-[1,1'-biphenyl]-4-yl]methyl]-3-[(phenylmethyl)oxy]propanamide, trifluoracetate] as the compound, how does the EC50 read?
A: > 500 nM

Q: How did the EC50 turn out when `CN(Cc1ccc(-c2ccccc2-c2nnn[nH]2)cc1)C(=O)[C@@H](CCc1ccccc1)NC(=O)C(C)(C)N.O=C(O)C(F)(F)F` [Example 7a, (R)-α-[(2-Amino-2-methyl-1-oxypropyl)amino]-N-methyl-N-[[2'-(1H-tetrazol-5-yl)-[1,1'-biphenyl]-4-yl]methyl]benzenebutanamide trifluoroacetate] was run?
A: < 500 nM

Q: With `CNC(=O)NCc1ccccc1-c1ccc(CN(C)C(=O)[C@@H](CCc2ccccc2)NC(=O)CC(C)(C)N)cc1.O=C(O)C(F)(F)F` [Example 10] as the compound, how does the EC50 read?
A: < 500 nM

Q: For `CNC(=O)NCc1ccccc1-c1ccc(CN(C)C(=O)[C@@H](Cc2c[nH]c3ccccc23)NC(=O)C(C)(C)N)cc1.O=C(O)C(F)(F)F` [Example 14], which EC50 is on record?
A: < 500 nM

Q: For `CCN(Cc1ccc(-c2ccccc2-c2nnn[nH]2)cc1)C(=O)[C@@H](CCc1ccccc1)NC(=O)CC(C)(C)N.O=C(O)C(F)(F)F` [Example 19, (R)-α-[(3-Amino-3-methyl-1-oxybutyl)amino]-N-ethyl-N-[[2'-(1H-tetrazol-5-yl)-[1,1'-biphenyl]-4-yl]methyl]benzenebutanamide, trifluoroacetate], which EC50 is on record?
A: > 500 nM

Q: For `CCN(Cc1ccc(-c2ccccc2CNC(=O)NC)cc1)C(=O)[C@@H](CCc1ccccc1)NC(=O)CC(C)(C)N.O=C(O)C(F)(F)F` [Example 21], which EC50 is on record?
A: < 500 nM

Q: For `CC(C)(N)C(=O)N[C@H](CCc1ccccc1)C(=O)N(Cc1ccc(-c2ccccc2-c2nnn[nH]2)cc1)c1ccc(O)cc1.O=C(O)C(F)(F)F` [Example 31, (R)-α-[(2-Amino-2-methyl-1-oxypropyl)amino]-N-(4-hydroxyphenyl)-N-[[2'-(1H-tetrazol-5-yl)-[1,1'-biphenyl]-4-yl]methyl]benzene-butanamide, trifluoroacetate], which EC50 is on record?
A: > 500 nM

Q: How did the EC50 turn out when `CC(C)(N)CC(=O)N[C@H](COCc1ccccc1)C(=O)NCc1ccc(-c2ccccc2-c2nnn[nH]2)cc1.O=C(O)C(F)(F)F` [Example 28, (R)-α-[(3-Amino-3-methyl-1-oxybutyl)amino]-N-[[2'-(1H-tetrazol-5-yl)-[1,1'-biphenyl]-4-yl]methyl]-3-[(phenylmethyl)oxy]propanamide, trifluoracetate] was run?
A: > 500 nM

Q: `COc1ccc(N(Cc2ccc(-c3ccccc3-c3nnn[nH]3)cc2)C(=O)[C@@H](CCc2ccccc2)NC(=O)CC(C)(C)N)cc1.O=C(O)C(F)(F)F` [Example 30, (R)-α-[(3-Amino-3-methyl-1-oxybutyl)amino]-N-(4-methoxyphenyl)-N-[[2'-(1H-tetrazol-5-yl)-[1,1'-biphenyl]-4-yl]methyl]-benzenebutanamide, trifluoroacetate] was tested. Which EC50 did it give?
A: > 500 nM

Q: How did the EC50 turn out when `CC(C)(N)CC(=O)N[C@H](COCc1ccccc1)C(=O)NCc1ccc(-c2ccccc2NC(=O)NCCO)cc1.O=C(O)C(F)(F)F` [Example 26, (R)-α-[(3-Amino-3-methyl-1-oxobutyl)amino]-N-[[(2'-[(2-hydroxyethylamino)carbonyl]amino][1,1'-biphenyl]-4-yl]-methyl]-3-[(phenylmethyl)oxy]propanamide, trifluoracetate] was run?
A: > 500 nM

— US5726319A, “Biphenyl substituted dipeptide analogs promote release of growth hormone” (Merck & Co., Inc., priority 1995, dated 1998)
